“Also recorded” adds a separate entry of the source.
What was measured:
[1] = tested on: hair cycle; test: Topical treatment of mice in telogen with UK-5099, hair cycle; assay type: in vivo
Protocol: (§1) FIG. 7A: Animals treated topically with UK-5099 (20 μM) show pigmentation and hair growth, indicative of entry into anagen, after 8 days of treatment. Full anagen, indicated by full coat of hair, is achieved after 14 days of treatment. […] Images shown are representative of at least 14 mice from 7 independent experiments. Scale bars indicate 100 micrometers. FIG. 7B: Graph showing time to observed phenotype in vehicle versus UK-5099 treated mice. n=6 mice per condition. Shown as mean±SEM. […] Ldh activity is indicated by purple stain; pink is nuclear fast red counterstain. Scale bars indicate 50 micrometers. FIG. 7D: Metabolomic analysis of Lactate on HFSCs isolated from UK-5099 treated skin for 48 hours; Each bar represents the average signal for each condition where n=9 mice pooled from 3 independent experiments. Shown as mean±SEM. Paired t-test was performed, p<0.05.
(§2) Quantification of the hair cycle across at least 6 pairs of animals (vehicle vs UK-5099) indicated a strong acceleration of the hair cycle, in as few as 6-9 days (FIG. 7B).

[2] = tested on: Ldh; test: Ldh enzyme activity assay in the epidermis of topically treated animals; assay type: in vivo, mice; settings: topical, 48 hours during telogen
Protocol: as §1
To determine whether Ldha expression patterns correlate with activity of the Ldh enzyme, a colorimetric-based enzymatic assay was used to assess Ldh activity capacity in situ. Typically performed on protein lysates or aliquots with a plate reader, the Ldh activity assay was adapted to work in situ on frozen tissue sections. […]
as §2

[3] = tested on: HFSCs; test: Metabolomic analysis of lactate on HFSCs isolated from treated skin; assay type: in vivo, mice; settings: topical application, treated skin for 48 hours
Protocol: as §1, §2

[4] = topical treatment of animals in telogen (day 50)

N#C/C(=C\c1cn(-c2ccccc2)c2ccccc12)C(=O)O [UK-5099, (E)-2-Cyano-3-(1-phenyl-1H-indol-3-yl)acrylic acid]
acceleration of the hair cycle [1, 4]: robust acceleration of the hair cycle
proliferation of the interfollicular epidermis [1, 4]: minor hyperproliferation of the interfollicular epidermis
skin pathology, hair cycle stage ([1]; topical, 20 μM, at 8 weeks): enter an accelerated anagen
full anagen, indicated by full coat of hair, time of treatment ([1]; topical, 20 μM, mice): 14 days
pigmentation and hair growth, indicative of entry into anagen, time of treatment ([1]; topical, 20 μM, mice): 8 days
quantification of the hair cycle, time to acceleration ([1]; topical, at least 6 pairs of animals, vehicle vs UK-5099): 6 to 9 days
Ldh activity in HFSCs and interfollicular epidermis [2]: increased Ldh activity; also recorded: Ldh enzyme activity also seen in interfollicular epidermis
total levels of lactate in sorted HFSCs [3]: increases total levels of lactate
